Measured values reported in PubChem BioAssay AID256 (DTP/NCI, 2004).
Where “and” joins values, the source holds several entries; their conditions need not be identical. Equal values may be shown once. Toxic doses and inconclusive results are not listed.

Test system: CD2F1 mice, L1210 leukemia ip, survival T/C
Assay: NCI In Vivo Anticancer Drug Screen. Data for tumor model L1210 Leukemia (intraperitoneal) in CD2F1 (CDF1) mice
Conditions: higher = longer survival
Method in brief: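 Ratio T/C, where T is the treated-group value and C the vehicle-dosed control value, from mice implanted with a transplantable tumor.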

[1] = endpoint: mean survival time, dose: 100.0 mg/kg/injection, schedule: Q01DX009 (ip), vehicle: saline with Tween-80
[2] = endpoint: mean survival time, dose: 100.0 mg/kg/injection, schedule: Q04DX003 (ip), vehicle: saline with Tween-80
[3] = endpoint: mean survival time, dose: 200.0 mg/kg/injection, schedule: Q01DX009 (ip), vehicle: saline with Tween-80
[4] = endpoint: mean survival time, dose: 200.0 mg/kg/injection, schedule: Q04DX003 (ip), vehicle: saline with Tween-80
[5] = endpoint: mean survival time, dose: 400.0 mg/kg/injection, schedule: Q01DX009 (ip), vehicle: saline with Tween-80
[6] = endpoint: mean survival time, dose: 400.0 mg/kg/injection, schedule: Q04DX003 (ip), vehicle: saline with Tween-80
[7] = endpoint: mean survival time, dose: 75.0 mg/kg/injection, schedule: Q01DX001 (ip), vehicle: other
[8] = endpoint: mean survival time, dose: 100.0 mg/kg/injection, schedule: Q04DX003 (ip), vehicle: Klucel (hydroxypropylcellulose) (HPC)
[9] = endpoint: mean survival time, dose: 200.0 mg/kg/injection, schedule: Q04DX003 (ip), vehicle: Klucel (hydroxypropylcellulose) (HPC)
[10] = endpoint: mean survival time, dose: 400.0 mg/kg/injection, schedule: Q04DX003 (ip), vehicle: Klucel (hydroxypropylcellulose) (HPC)

## Nc1nc2c(ncn2C2OC(CO)C(O)C2O)c(=O)[n]1[Hg][c]1ccccc1 (configuration not stated)
endpoint: median survival time, dose: 0.79 mg/kg/injection, schedule: Q01DX005 (ip), vehicle: saline
  T/C: 103 % of control
endpoint: median survival time, dose: 1.56 mg/kg/injection, schedule: Q01DX005 (ip), vehicle: saline
  T/C: 100 % of control
endpoint: median survival time, dose: 3.12 mg/kg/injection, schedule: Q01DX005 (ip), vehicle: saline
  T/C: 100 % of control
endpoint: median survival time, dose: 6.25 mg/kg/injection, schedule: Q01DX005 (ip), vehicle: saline
  T/C: 100 % of control
endpoint: median survival time, dose: 12.5 mg/kg/injection, schedule: Q01DX005 (ip), vehicle: saline
  T/C: 108 % of control

## C1=CCC(CNc2ncnc3nc[nH]c23)=CC1
[1]
  T/C: 100 % of control
[2]
  T/C: 98 % of control
[3]
  T/C: 100 % of control
[4]
  T/C: 98 % of control
[5]
  T/C: 88 % of control
[6]
  T/C: 104 % of control

## O=[N+]([O-])c1ccc(N2CCOCC2)c([N+](=O)[O-])c1
[1]
  T/C: 103 % of control
[2]
  T/C: 97 % of control
[3]
  T/C: 100 % of control
[4]
  T/C: 103 % of control
[5]
  T/C: 97 % of control
[6]
  T/C: 100 % of control

## O=C1CSC(=S)N1/N=C/c1ccc2c(c1)OCO2
[7]
  T/C: 94 % of control
endpoint: mean survival time, dose: 150.0 mg/kg/injection, schedule: Q01DX001 (ip), vehicle: other
  T/C: 93 % of control
endpoint: mean survival time, dose: 300.0 mg/kg/injection, schedule: Q01DX001 (ip), vehicle: other
  T/C: 97 % of control

## O=C(O)CNCNCC(=O)O
endpoint: mean survival time, dose: 100.0 mg/kg/injection, schedule: Q04DX002 (ip), vehicle: saline
  T/C: 90 % of control
endpoint: mean survival time, dose: 200.0 mg/kg/injection, schedule: Q04DX002 (ip), vehicle: saline
  T/C: 86 % of control

## CN(Cc1cnc2nc(N[Si](C)(C)C)nc(N[Si](C)(C)C)c2n1)c1ccc(C(=O)NC(CCC(=O)O[Si](C)(C)C)C(=O)O[Si](C)(C)C)cc1 (configuration not stated)
endpoint: mean survival time, dose: 1.25 mg/kg/injection, schedule: Q01DX009 (ip), vehicle: saline
  T/C: 159 % of control
endpoint: mean survival time, dose: 1.9 mg/kg/injection, schedule: Q04DX003 (ip), vehicle: saline
  T/C: 117 % of control
endpoint: mean survival time, dose: 2.5 mg/kg/injection, schedule: Q01DX009 (ip), vehicle: saline
  T/C: 172 % of control
endpoint: mean survival time, dose: 7.5 mg/kg/injection, schedule: Q04DX003 (ip), vehicle: saline
  T/C: 159 % of control
endpoint: mean survival time, dose: 15.0 mg/kg/injection, schedule: Q04DX003 (ip), vehicle: saline
  T/C: 178 % of control
endpoint: mean survival time, dose: 20.0 mg/kg/injection, schedule: Q01DX009 (ip), vehicle: saline
  T/C: 103 % of control
endpoint: mean survival time, dose: 30.0 mg/kg/injection, schedule: Q04DX003 (ip), vehicle: saline
  T/C: 193 % of control
endpoint: mean survival time, dose: 60.0 mg/kg/injection, schedule: Q04DX003 (ip), vehicle: saline
  T/C: 155 % of control
endpoint: mean survival time, dose: 120.0 mg/kg/injection, schedule: Q04DX003 (ip), vehicle: saline
  T/C: 117 % of control

## O=C(Nc1cccc(F)c1)c1ccco1
[8]
  T/C: 94 % of control
[9]
  T/C: 88 % of control
[10]
  T/C: 91 % of control

## Cn1cc(C2NC(=O)c3ccccc3N2)c2ccccc21 (configuration not stated)
endpoint: median survival time, dose: 100.0 mg/kg/injection, schedule: Q01DX009 (ip), vehicle: Klucel (hydroxypropylcellulose) (HPC)
  T/C: 119 % of control

## CN(C)S(=O)(=O)C1(c2ccccc2)CCCC1
[2]
  T/C: 102 % of control
[4]
  T/C: 105 % of control
[6]
  T/C: 100 % of control

## O=[N+]([O-])c1cccn2nc(C3OC(CO)C(O)C3O)nc12 (configuration not stated)
endpoint: mean survival time, dose: 12.5 mg/kg/injection, schedule: Q01DX005 (ip), vehicle: water
  T/C: 96 % of control
endpoint: mean survival time, dose: 25.0 mg/kg/injection, schedule: Q01DX005 (ip), vehicle: water
  T/C: 97 % of control
endpoint: mean survival time, dose: 50.0 mg/kg/injection, schedule: Q01DX005 (ip), vehicle: water
  T/C: 94 % of control
endpoint: mean survival time, dose: 100.0 mg/kg/injection, schedule: Q01DX005 (ip), vehicle: water
  T/C: 100 % of control

## O=c1[nH]c(=O)n(C2OC(COP(=O)(O)O)C(O)C2O)nc1SCc1ccccc1 (configuration not stated)
endpoint: median survival time, dose: 5.0 mg/kg/injection, schedule: Q01DX005 (ip), vehicle: distilled water + Tween-80
  T/C: 109 % of control
endpoint: median survival time, dose: 10.0 mg/kg/injection, schedule: Q01DX005 (ip), vehicle: distilled water + Tween-80
  T/C: 98 % of control
endpoint: median survival time, dose: 20.0 mg/kg/injection, schedule: Q01DX005 (ip), vehicle: distilled water + Tween-80
  T/C: 96 % of control
endpoint: median survival time, dose: 40.0 mg/kg/injection, schedule: Q01DX005 (ip), vehicle: distilled water + Tween-80
  T/C: 105 % of control
endpoint: median survival time, dose: 80.0 mg/kg/injection, schedule: Q01DX005 (ip), vehicle: distilled water + Tween-80
  T/C: 117 % of control

## CCC(C)(S(=O)(=O)CC)S(=O)(=O)CC
[2]
  T/C: 102 % of control
[4]
  T/C: 98 % of control
[6]
  T/C: 98 % of control

## CCOc1ccc(NC(=O)C2CCC(C)(C(=O)O)C2(C)C)cc1 (configuration not stated)
endpoint: mean survival time, dose: 25.0 mg/kg/injection, schedule: Q01DX009 (ip), vehicle: saline with Tween-80
  T/C: 102 % of control
endpoint: mean survival time, dose: 25.0 mg/kg/injection, schedule: Q04DX003 (ip), vehicle: saline with Tween-80
  T/C: 98 % of control
endpoint: mean survival time, dose: 50.0 mg/kg/injection, schedule: Q01DX009 (ip), vehicle: saline with Tween-80
  T/C: 98 % of control
endpoint: mean survival time, dose: 50.0 mg/kg/injection, schedule: Q04DX003 (ip), vehicle: saline with Tween-80
  T/C: 100 % of control
[1]
  T/C: 95 % of control
[2]
  T/C: 96 % of control and 98 % of control

## O=[N+]([O-])c1[nH]c(Br)nc1Br
[2]
  T/C: 95 % of control
[4]
  T/C: 100 % of control

## CCOC(=O)Nc1cc(Nc2ccccc2)c(N)c(N)n1
endpoint: mean survival time, dose: 100.0 mg/kg/injection, schedule: Q01DX001 (ip), vehicle: saline
  T/C: 88 % of control
endpoint: mean survival time, dose: 200.0 mg/kg/injection, schedule: Q01DX001 (ip), vehicle: saline
  T/C: 94 % of control

## C(=N\Nc1nc2ccccc2s1)/c1cccnc1
[8]
  T/C: 97 % of control
[9]
  T/C: 94 % of control
[10]
  T/C: 100 % of control

## CCN(CC)CCNC(=O)C(O)C1CCCCC1 (configuration not stated)
[7]
  T/C: 90 % of control

## CC1(C)C/C(=C\c2ccc([N+](=O)[O-])cc2)C(=O)c2ccccc21
endpoint: mean survival time, dose: 12.5 mg/kg/injection, schedule: Q01DX009 (ip), vehicle: Klucel (hydroxypropylcellulose) (HPC)
  T/C: 102 % of control
endpoint: mean survival time, dose: 25.0 mg/kg/injection, schedule: Q01DX009 (ip), vehicle: Klucel (hydroxypropylcellulose) (HPC)
  T/C: 98 % of control
endpoint: mean survival time, dose: 50.0 mg/kg/injection, schedule: Q01DX009 (ip), vehicle: Klucel (hydroxypropylcellulose) (HPC)
  T/C: 96 % of control
endpoint: mean survival time, dose: 100.0 mg/kg/injection, schedule: Q01DX009 (ip), vehicle: Klucel (hydroxypropylcellulose) (HPC)
  T/C: 98 % of control
endpoint: mean survival time, dose: 200.0 mg/kg/injection, schedule: Q01DX009 (ip), vehicle: Klucel (hydroxypropylcellulose) (HPC)
  T/C: 93 % of control
endpoint: mean survival time, dose: 400.0 mg/kg/injection, schedule: Q01DX009 (ip), vehicle: Klucel (hydroxypropylcellulose) (HPC)
  T/C: 94 % of control

## CN(C)CCN(C)C
endpoint: mean survival time, dose: 100.0 mg/kg/injection, schedule: Q01DX009 (ip), vehicle: saline
  T/C: 96 % of control
endpoint: mean survival time, dose: 400.0 mg/kg/injection, schedule: Q01DX009 (ip), vehicle: saline
  T/C: 106 % of control

## O=C(NC(=S)Nc1ccccc1Cl)c1ccc(Cl)cc1
endpoint: mean survival time, dose: 100.0 mg/kg/injection, schedule: Q04DX002 (ip), vehicle: saline with Tween-80
  T/C: 103 % of control
endpoint: mean survival time, dose: 200.0 mg/kg/injection, schedule: Q04DX002 (ip), vehicle: saline with Tween-80
  T/C: 88 % of control
endpoint: mean survival time, dose: 400.0 mg/kg/injection, schedule: Q04DX002 (ip), vehicle: saline with Tween-80
  T/C: 88 % of control

## CN(Cc1cnc2nc(N)nc(N)c2n1)c1ccc(C(=O)NC(CCC(=O)NC(CCC(=O)O)C(=O)O)C(=O)O)cc1 (configuration not stated)
endpoint: mean survival time, dose: 2.5 mg/kg/injection, schedule: Q01DX009 (ip), vehicle: sodium bicarbonate
  T/C: 165 % of control
endpoint: mean survival time, dose: 5.0 mg/kg/injection, schedule: Q01DX009 (ip), vehicle: sodium bicarbonate
  T/C: 119 % of control
endpoint: mean survival time, dose: 10.0 mg/kg/injection, schedule: Q01DX009 (ip), vehicle: sodium bicarbonate
  T/C: 89 % of control

## O=S1(=O)CCCCC1
endpoint: mean survival time, dose: 37.5 mg/kg/injection, schedule: Q01DX009 (ip), vehicle: saline
  T/C: 98 % of control
endpoint: mean survival time, dose: 75.0 mg/kg/injection, schedule: Q01DX001 (ip), vehicle: saline
  T/C: 104 % of control
endpoint: mean survival time, dose: 75.0 mg/kg/injection, schedule: Q01DX009 (ip), vehicle: saline
  T/C: 98 % of control
endpoint: mean survival time, dose: 75.0 mg/kg/injection, schedule: Q04DX003 (ip), vehicle: saline
  T/C: 93 % of control
endpoint: mean survival time, dose: 150.0 mg/kg/injection, schedule: Q01DX001 (ip), vehicle: saline
  T/C: 96 % of control
endpoint: mean survival time, dose: 150.0 mg/kg/injection, schedule: Q01DX009 (ip), vehicle: saline
  T/C: 98 % of control
endpoint: mean survival time, dose: 150.0 mg/kg/injection, schedule: Q04DX003 (ip), vehicle: saline
  T/C: 96 % of control
endpoint: mean survival time, dose: 300.0 mg/kg/injection, schedule: Q01DX001 (ip), vehicle: saline
  T/C: 95 % of control
endpoint: mean survival time, dose: 300.0 mg/kg/injection, schedule: Q04DX003 (ip), vehicle: saline
  T/C: 100 % of control
